Tested on: 885724-159-R-J1-PDC complex spheroid viability
Assay: Anticancer human tumor 885724-159-R-J1-PDC patient-derived pancreatic adenocarcinoma cell line growth inhibition [POLQ]
Conditions: for IC50: curve of first compound; for viability, T/C: stronger effect = lower value
Procedure, shortened: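 Growth inhibition in 3D: complex spheroids (tumor PDC, HUVEC, MSC) treated with POLQ inhibitor combinations; where Cmax unknown, highest tested concentration 10 microM, except SN-38 at 1 microM.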

[1] = second compound 0.0316 µM, first compound 0.0316 µM
[2] = second compound 0.0316 µM, first compound 0.1 µM
[3] = second compound 0.0316 µM, first compound 0.316 µM
[4] = second compound 0.0316 µM, first compound 1 µM
[5] = second compound 0.0316 µM, first compound 3.16 µM
[6] = second compound 0.0316 µM, first compound 10 µM
[7] = second compound 0.1 µM, first compound 0.0316 µM
[8] = second compound 0.1 µM, first compound 0.1 µM
[9] = second compound 0.1 µM, first compound 0.316 µM
[10] = second compound 0.1 µM, first compound 1 µM
[11] = second compound 0.1 µM, first compound 3.16 µM
[12] = second compound 0.1 µM, first compound 10 µM
[13] = second compound 0.316 µM, first compound 0.0316 µM
[14] = second compound 0.316 µM, first compound 0.1 µM
[15] = second compound 0.316 µM, first compound 0.316 µM
[16] = second compound 0.316 µM, first compound 1 µM
[17] = second compound 0.316 µM, first compound 3.16 µM
[18] = second compound 0.316 µM, first compound 10 µM
[19] = second compound 1 µM, first compound 0.0316 µM
[20] = second compound 1 µM, first compound 0.1 µM
[21] = second compound 1 µM, first compound 0.316 µM
[22] = second compound 1 µM, first compound 1 µM
[23] = second compound 1 µM, first compound 3.16 µM
[24] = second compound 1 µM, first compound 10 µM
[25] = second compound 3.16 µM, first compound 0.0316 µM
[26] = second compound 3.16 µM, first compound 0.1 µM
[27] = second compound 3.16 µM, first compound 0.316 µM
[28] = second compound 3.16 µM, first compound 1 µM
[29] = second compound 3.16 µM, first compound 3.16 µM
[30] = second compound 3.16 µM, first compound 10 µM
[31] = second compound 10 µM, first compound 0.0316 µM
[32] = second compound 10 µM, first compound 0.1 µM
[33] = second compound 10 µM, first compound 0.316 µM
[34] = second compound 10 µM, first compound 1 µM
[35] = second compound 10 µM, first compound 3.16 µM
[36] = second compound 10 µM, first compound 10 µM
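Also: spheroids exposed to compounds for 7 days.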

Question: Which IC50 (second compound 0.0316 µM) does the source give for `C#Cc1c(F)ccc2cc(O)cc(-c3ncc4c(N5CC6CCC(C5)N6)nc(OCC56CCCN5CC(F)C6)nc4c3F)c12` (stereo unspecified) + COC1C(OC(N)=O)C(O)C(Oc2ccc3c(O)c(NC(=O)c4ccc(O)c(CC=C(C)C)c4)c(=O)oc3c2C)OC1(C)C here?
Answer: 2750 nM

Question: What about the IC50 (second compound 0.1 µM) of the same molecule?
Answer: 2490 nM

Question: And the IC50 (second compound 0.316 µM)?
Answer: 2380 nM

Question: What about the IC50 (second compound 1 µM) of the same molecule?
Answer: 2670 nM

Question: What about the IC50 (second compound 3.16 µM) of the same molecule?
Answer: 2580 nM

Question: And the IC50 (second compound 10 µM)?
Answer: 2970 nM

Question: And the viability, T/C [1]?
Answer: 104%

Question: What about the viability, T/C [2] of the same molecule?
Answer: 101%

Question: What about the viability, T/C [3] of the same molecule?
Answer: 88.5%

Question: What about the viability, T/C [4] of the same molecule?
Answer: 76.8%

Question: What about the viability, T/C [5] of the same molecule?
Answer: 45.2%

Question: What about the viability, T/C [6] of the same molecule?
Answer: 21.7%

Question: And the viability, T/C [7]?
Answer: 104%

Question: What about the viability, T/C [8] of the same molecule?
Answer: 94.3%

Question: And the viability, T/C [9]?
Answer: 93%

Question: What about the viability, T/C [10] of the same molecule?
Answer: 72.1%

Question: What about the viability, T/C [11] of the same molecule?
Answer: 44%

Question: What about the viability, T/C [12] of the same molecule?
Answer: 21.7%

Question: What about the viability, T/C [13] of the same molecule?
Answer: 95.7%

Question: And the viability, T/C [14]?
Answer: 107%

Question: And the viability, T/C [15]?
Answer: 88.7%

Question: And the viability, T/C [16]?
Answer: 76.6%

Question: What about the viability, T/C [17] of the same molecule?
Answer: 40.9%

Question: And the viability, T/C [18]?
Answer: 22.6%

Question: And the viability, T/C [19]?
Answer: 97.9%

Question: And the viability, T/C [20]?
Answer: 100%

Question: What about the viability, T/C [21] of the same molecule?
Answer: 90%

Question: And the viability, T/C [22]?
Answer: 76.5%

Question: And the viability, T/C [23]?
Answer: 45.2%

Question: What about the viability, T/C [24] of the same molecule?
Answer: 20.8%

Question: What about the viability, T/C [25] of the same molecule?
Answer: 94.9%

Question: And the viability, T/C [26]?
Answer: 97.2%

Question: What about the viability, T/C [27] of the same molecule?
Answer: 90.3%

Question: And the viability, T/C [28]?
Answer: 67.2%

Question: And the viability, T/C [29]?
Answer: 47.8%

Question: And the viability, T/C [30]?
Answer: 22.3%

Question: And the viability, T/C [31]?
Answer: 99.4%

Question: What about the viability, T/C [32] of the same molecule?
Answer: 92.6%

Question: And the viability, T/C [33]?
Answer: 95.2%

Question: And the viability, T/C [34]?
Answer: 73.9%

Question: And the viability, T/C [35]?
Answer: 49.4%

Question: What about the viability, T/C [36] of the same molecule?
Answer: 21.9%

Question: `C=CC(=O)N1CCN(c2nc(=O)n(-c3c(C)ccnc3C(C)C)c3nc(-c4c(O)cccc4F)c(F)cc23)C(C)C1` (stereo unspecified) + COC1C(OC(N)=O)C(O)C(Oc2ccc3c(O)c(NC(=O)c4ccc(O)c(CC=C(C)C)c4)c(=O)oc3c2C)OC1(C)C was tested. Which IC50 (second compound 0.0316 µM) did it give?
Answer: > 10000 nM

Question: What about the IC50 (second compound 0.1 µM) of the same molecule?
Answer: > 10000 nM

Question: And the IC50 (second compound 0.316 µM)?
Answer: > 10000 nM

Question: What about the IC50 (second compound 1 µM) of the same molecule?
Answer: > 10000 nM

Question: And the IC50 (second compound 3.16 µM)?
Answer: > 10000 nM

Question: And the IC50 (second compound 10 µM)?
Answer: > 10000 nM

Question: And the viability, T/C [1]?
Answer: 104%

Question: What about the viability, T/C [2] of the same molecule?
Answer: 97.9%

Question: And the viability, T/C [3]?
Answer: 110%

Question: And the viability, T/C [4]?
Answer: 113%

Question: What about the viability, T/C [5] of the same molecule?
Answer: 114%

Question: And the viability, T/C [6]?
Answer: 91.7%

Question: What about the viability, T/C [7] of the same molecule?
Answer: 109%

Question: And the viability, T/C [8]?
Answer: 91.9%

Question: And the viability, T/C [9]?
Answer: 106%

Question: And the viability, T/C [10]?
Answer: 108%

Question: What about the viability, T/C [11] of the same molecule?
Answer: 115%

Question: What about the viability, T/C [12] of the same molecule?
Answer: 105%

Question: And the viability, T/C [13]?
Answer: 107%

Question: What about the viability, T/C [14] of the same molecule?
Answer: 115%

Question: What about the viability, T/C [15] of the same molecule?
Answer: 104%

Question: And the viability, T/C [16]?
Answer: 112%

Question: What about the viability, T/C [17] of the same molecule?
Answer: 123%

Question: What about the viability, T/C [18] of the same molecule?
Answer: 95.1%

Question: And the viability, T/C [19]?
Answer: 118%

Question: And the viability, T/C [20]?
Answer: 104%

Question: What about the viability, T/C [21] of the same molecule?
Answer: 112%

Question: And the viability, T/C [22]?
Answer: 106%

Question: And the viability, T/C [23]?
Answer: 114%

Question: And the viability, T/C [24]?
Answer: 83.2%

Question: What about the viability, T/C [25] of the same molecule?
Answer: 102%

Question: And the viability, T/C [26]?
Answer: 108%

Question: And the viability, T/C [27]?
Answer: 104%

Question: And the viability, T/C [28]?
Answer: 116%

Question: What about the viability, T/C [29] of the same molecule?
Answer: 124%

Question: What about the viability, T/C [30] of the same molecule?
Answer: 104%

Question: And the viability, T/C [31]?
Answer: 96%

Question: And the viability, T/C [32]?
Answer: 93.7%

Question: And the viability, T/C [33]?
Answer: 106%

Question: And the viability, T/C [34]?
Answer: 110%

Question: And the viability, T/C [35]?
Answer: 111%

Question: What about the viability, T/C [36] of the same molecule?
Answer: 91%

Question: `CC1COCCN1c1cc(-c2ccnn2C)c2ccnc(-c3ccn[nH]3)c2n1` (stereo unspecified) + COC1C(OC(N)=O)C(O)C(Oc2ccc3c(O)c(NC(=O)c4ccc(O)c(CC=C(C)C)c4)c(=O)oc3c2C)OC1(C)C was tested. Which IC50 (second compound 0.0316 µM) did it give?
Answer: 229 nM

Question: What about the IC50 (second compound 0.1 µM) of the same molecule?
Answer: 211 nM

Question: What about the IC50 (second compound 0.316 µM) of the same molecule?
Answer: 169 nM

Question: What about the IC50 (second compound 1 µM) of the same molecule?
Answer: 188 nM

Question: What about the IC50 (second compound 3.16 µM) of the same molecule?
Answer: 189 nM

Question: And the IC50 (second compound 10 µM)?
Answer: 247 nM

Question: What about the viability, T/C [1] of the same molecule?
Answer: 78.3%

Question: What about the viability, T/C [2] of the same molecule?
Answer: 63.8%

Question: And the viability, T/C [3]?
Answer: 44.3%

Question: And the viability, T/C [4]?
Answer: 42.1%

Question: What about the viability, T/C [5] of the same molecule?
Answer: 39%

Question: What about the viability, T/C [6] of the same molecule?
Answer: 39.3%

Question: And the viability, T/C [7]?
Answer: 76.5%

Question: And the viability, T/C [8]?
Answer: 64.3%

Question: What about the viability, T/C [9] of the same molecule?
Answer: 41.6%

Question: What about the viability, T/C [10] of the same molecule?
Answer: 41.5%

Question: What about the viability, T/C [11] of the same molecule?
Answer: 35.2%

Question: And the viability, T/C [12]?
Answer: 35.6%

Question: What about the viability, T/C [13] of the same molecule?
Answer: 81.1%

Question: And the viability, T/C [14]?
Answer: 53.8%

Question: And the viability, T/C [15]?
Answer: 44.3%

Question: What about the viability, T/C [16] of the same molecule?
Answer: 43.5%

Question: And the viability, T/C [17]?
Answer: 43.3%

Question: And the viability, T/C [18]?
Answer: 36.2%

Question: What about the viability, T/C [19] of the same molecule?
Answer: 84.1%

Question: And the viability, T/C [20]?
Answer: 55.8%

Question: What about the viability, T/C [21] of the same molecule?
Answer: 43.6%

Question: What about the viability, T/C [22] of the same molecule?
Answer: 43.7%

Question: What about the viability, T/C [23] of the same molecule?
Answer: 41%

Question: And the viability, T/C [24]?
Answer: 33.5%

Question: What about the viability, T/C [25] of the same molecule?
Answer: 76.4%

Question: And the viability, T/C [26]?
Answer: 55.9%

Question: What about the viability, T/C [27] of the same molecule?
Answer: 45.5%

Question: What about the viability, T/C [28] of the same molecule?
Answer: 37.8%

Question: What about the viability, T/C [29] of the same molecule?
Answer: 37.8%

Question: What about the viability, T/C [30] of the same molecule?
Answer: 33.8%

Question: And the viability, T/C [31]?
Answer: 77.1%

Question: What about the viability, T/C [32] of the same molecule?
Answer: 57.6%

Question: What about the viability, T/C [33] of the same molecule?
Answer: 48.2%

Question: What about the viability, T/C [34] of the same molecule?
Answer: 41.1%

Question: And the viability, T/C [35]?
Answer: 38.9%

Question: What about the viability, T/C [36] of the same molecule?
Answer: 34.4%

— PubChem BioAssay AID1963832 (Molecular Pharmacology Branch, DTP, NCI, 2024)
